# Test results reported in article PMC12627007, “HIV nucleocapsid proteins as targets for novel 1,2-benzisothiazol-3(2H)-one benzenesulfonamides: synthesis and antiretroviral activity” (Frontiers in Microbiology, 2025).
# Where two headings read alike, the source gives them in different places.
# How the values were obtained:
# [1] = test system: HIV-1 IIIB strain; assay: microbe, parasite or virus in culture; type: cell-based; conditions: for EC50: Human immunodeficiency virus 1, IIIB; for Selectivity Index (SI = CC50/EC50) HIV-1: IIIB strain, in round brackets
# Method: (§1) HIV-1IIIB and HIV-2 CBL-20 strains were obtained from the supernatants of persistently infected H9/IIIB and CEM cells, respectively. HIV-1 and HIV-2 stock solutions had titres of 4.5 × 10^7 and 1.4 × 10^6 50% cell culture infectious doses (CCID50)/ml, respectively. […] The K103R + V179D + P225H mutant (EFVR) was derived from an IIIB strain passaged in MT-4 cells in the presence of Efavirenz (up to 2 μM). N119, A17 and EFV^R stock solutions had titres of 1.2 × 10^8, 2.1 × 10^7, and 4.0 × 10^7 CCID50/ml, respectively.
# (§2) The activity of the test compounds against the replication of HIV-1 wt and mutant strains (N119, A17, EFV^R, AZT^R, MDR, SAQ^R) and HIV-2 wt in acutely infected cells was based on the inhibition of virus-induced cytopathogenicity in MT-4 and C8166 cells, respectively. Briefly, 50 μL of culture medium containing 1 × 10^4 cells was added to each well of flat-bottom microtitre trays containing 50 μL of culture medium with or without different serial concentrations of test compounds. Then, 20 μL of an HIV suspension (containing the appropriate amount of CCID50 required to cause complete cytopathogenicity on day 4, final multiplicity of infection [m.o.i.] 0.01) was added.
# [2] = test system: HIV-2 CBL-20 strain; assay: Inhibition of HIV-2-induced cytopathogenicity in C8166 cells (MTT); type: cell-based; conditions: for Selectivity Index (SI = CC50/EC50) HIV-2: in round brackets
# Method: as §1, §2
# [3] = test system: cell-free HIV-1; assay: Virucidal activity against cell-free HIV-1 (Reed-Muench titration); type: cell-based; conditions: 0 °C; compound 6 80 μM, AMPH-B 100 μM
# Method: (§3) Cell-free, high-titre HIV-1 and HIV-2 stock solutions were exposed to the test compounds for 2 h at 0 °C or 37 °C. At the end of incubation, residual infectivity was determined using the Reed–Muench end-point titration method, as described below.
# (§4) Titration was performed in C8166 cells using the standard limiting dilution method (dilution 1:2, four replica wells/dilution) in 96-well plates.
# [4] = test system: cell-free HIV-2; assay: Virucidal activity against cell-free HIV-2 (Reed-Muench titration); type: cell-based; conditions: 0 °C; compound 6 80 μM, AMPH-B 100 μM
# Method: as §3, §4
# [5] = Cytotoxicity in mock-infected MT-4 cells (MTT method); type: cell-based; conditions: human
# Method: as §2, with “added. After incubation at 37 °C, cell viability was determined using the […] (MTT) method ([Pauwels et al., 1988]). The cytotoxicity of the test compounds was evaluated in parallel with their antiviral activity through the viability of mock-infected, treated cells, as monitored by the MTT method and described elsewhere ([Morellet et al., 1994]).” for “added.”
# [6] = test system: HIV-1 N119 (Y181C); assay: Inhibition of virus-induced cytopathogenicity in MT-4 cells, NNRTI-resistant mutant N119; type: cell-based; conditions: for EC50: Human immunodeficiency virus 1, MT4, read-out: EC50 N119; for Selectivity Index (SI = CC50/EC50) N119: in round brackets
# Method: as §1, §2
# [7] = test system: HIV-1 A17 (K103N + Y181C); assay: Inhibition of virus-induced cytopathogenicity in MT-4 cells, NNRTI-resistant mutant A17; type: cell-based; conditions: for EC50: Human immunodeficiency virus 1, MT4, read-out: EC50 A17; for Selectivity Index (SI = CC50/EC50) A17: in round brackets
# Method: as §1, §2
# [8] = test system: HIV-1 EFVR (K103R + V179D + P225H); assay: Inhibition of virus-induced cytopathogenicity in MT-4 cells, NNRTI-resistant mutant EFVR; type: cell-based; conditions: for EC50: Human immunodeficiency virus 1, MT4, read-out: EC50 EFVR; for Selectivity Index (SI = CC50/EC50) EFVR: in round brackets
# Method: as §1, §2
# [9] = test system: HIV-1 AZTR (67N, 70R, 215F, 219Q); assay: Inhibition of virus-induced cytopathogenicity in MT-4 cells, NRTI-resistant mutant AZTR; type: cell-based; conditions: for EC50: Human immunodeficiency virus 1, MT4, read-out: EC50 AZTR; for Selectivity Index (SI = CC50/EC50) AZTR: in round brackets
# Method: as §1, §2
# [10] = test system: HIV-1 MDR (74V, 41L, 106A, 215Y); assay: Inhibition of virus-induced cytopathogenicity in MT-4 cells, NRTI-resistant mutant MDR; type: cell-based; conditions: for EC50: Human immunodeficiency virus 1, MT4, read-out: EC50 MDR; for Selectivity Index (SI = CC50/EC50) MDR: in round brackets
# Method: as §1, §2
# [11] = test system: HIV-1 SAQR (L10F, G48V, L90M); assay: Inhibition of virus-induced cytopathogenicity in MT-4 cells, PRI-resistant mutant SAQR; type: cell-based; conditions: for EC50: Human immunodeficiency virus 1, MT4, read-out: EC50 SAQR; for Selectivity Index (SI = CC50/EC50) SAQR: in round brackets
# Method: as §1, §2
# [12] = microbe, parasite or virus in culture; type: cell-based, HIV-1; conditions: all tested strains (HIV-1 wt, mutants, HIV-2)
# Method: as §1, §2
# [13] = biological target: T1, HIV-1 reverse transcriptase (Human immunodeficiency virus type 1 group M subtype B, UniProt P04585); assay: Reverse transcriptase enzyme assay; type: biochemical; conditions: for Inhibition of recombinant HIV-1 RT: at concentrations of 30 μM
# T1 construct: recombinant HIV-1 reverse transcriptase
# [14] = biological target: T2, HIV-1 recombinant integrase (rIN) (Human immunodeficiency virus type 1 group M subtype B, UniProt P04585); assay: Integrase (rIN) enzyme assays: 3'-processing and strand transfer; type: biochemical; conditions: for Inhibition of recombinant HIV-1 IN: at concentrations of 30 μM
# T2 construct: HIV-1 recombinant integrase (rIN); made in house
# Description: ^aCompound concentration (µM) required to reduce the amount of 3’-end-labeled duplex of 21/19mers substrates, in 3’-processing and strand-transfer reactions catalyzed by the recombinant HIV-1 integrase, by 50%. Data represent mean values for three independent determinations.
# [15] = Human immunodeficiency virus 2, C8166, read-out: EC50 HIV-2
# [16] = read-out: IC50 Strand-transfer, recombinant HIV-1 integrase
SMILES,"EC50 ([1]; MT4, read-out: EC50 HIV-1) [µM]",EC50 [6] [µM],EC50 [7] [µM],EC50 [8] [µM],EC50 [9] [µM],EC50 [10] [µM],EC50 [11] [µM],"EC50 [2, 15] [µM]",CC50 at 4 days [5] [µM],Selectivity Index (SI) against all tested strains [12],Selectivity Index (SI = CC50/EC50) HIV-1 [1],Selectivity Index (SI = CC50/EC50) N119 [6],Selectivity Index (SI = CC50/EC50) A17 [7],Selectivity Index (SI = CC50/EC50) EFVR [8],Selectivity Index (SI = CC50/EC50) AZTR [9],Selectivity Index (SI = CC50/EC50) MDR [10],Selectivity Index (SI = CC50/EC50) SAQR [11],Selectivity Index (SI = CC50/EC50) HIV-2 [2],further results
"C[C@@H]1[C@H](O)[C@@H](C)/C=C/C=C/C=C/C=C/C=C/C=C/C=C/[C@H](O[C@@H]2O[C@H](C)[C@@H](O)[C@H](N)[C@@H]2O)C[C@@H]2O[C@](O)(C[C@@H](O)C[C@@H](O)[C@H](O)CC[C@@H](O)C[C@@H](O)CC(=O)O[C@H]1C)C[C@H](O)[C@H]2C(=O)O [AMPH-B, Amphotericin B, reference compound]",–,–,–,–,–,–,–,–,–,–,–,–,–,–,–,–,–,–,"EC50 ([1]; MT4, read-out: EC50 HIV-1 (Table 2)): 6 ± 3 µM; EC50 ([2]; Human immunodeficiency virus 2, C8166, read-out: EC50 HIV-2 (Table 2)): 2 ± 0.3 µM; Effect on HIV-1 infectivity, incubation at 0 °C [3]: still able to reduce it by a high percentage; Effect on HIV-2 infectivity, incubation at 0 °C [4]: more than 1 log10"
"Cc1cn([C@H]2C[C@H](N=[N+]=[N-])[C@@H](CO)O2)c(=O)[nH]c1=O [AZT, azidothymidine, reference compound]",0.01 ± 0.003,0.02 ± 0.001,0.01 ± 0.003,0.01 ± 0.002,0.2 ± 0.05,0.2 ± 0.07,0.01 ± 0.005,0.008 ± 0.001,–,–,–,–,–,–,–,–,–,–,"CC50 ([5]; MT-4, MTT method): ≥ 20 µM"
"Cc1ccc(S(=O)(=O)Nn2sc3ccccc3c2=O)cc1 [Compound 7, 4-Methyl-N-(3-oxo-1,2-benzisothiazol-2(3H)-yl)benzenesulfonamide]",10 ± 3,5 ± 0.1,8 ± 1,8 ± 3,8 ± 1,6 ± 0.7,9 ± 2,4 ± 0.7,35 ± 1,around 10,3.5,7,4,4,4,5,3,8,"IC50 [13]: > 30 µM; Inhibition of recombinant HIV-1 RT [13]: none of the benzenesulfonamides were active; IC50 [14]: > 30 µM; Inhibition of recombinant HIV-1 IN [14]: none of the benzenesulfonamides were active; IC50 [14, 16]: > 30 µM"
"Cc1ccc2sn(NS(=O)(=O)c3ccccc3Cl)c(=O)c2c1 [Compound 17, 2-Chloro-N-(5-methyl-3-oxo-1,2-benzisothiazol-2(3H)-yl)benzenesulfonamide]",2 ± 1,5 ± 0.7,9 ± 3,5 ± 2,4 ± 0.7,3 ± 0.5,6 ± 1,4 ± 0.5,73 ± 0.1,around 10,36,14,8,14,18,23,12,18,–
"O=c1c2ccc(Cl)cc2sn1NS(=O)(=O)c1ccccc1Cl [Compound 19, 2-Chloro-N-(6-chloro-3-oxo-1,2-benzisothiazol-2(3H)-yl)benzenesulfonamide]",11 ± 3,14 ± 3,≥ 33,7 ± 2,14 ± 1,11 ± 2,21 ± 1,12 ± 2,60 ± 4,around 10,5,4,–,8,5,5,2,5,"IC50 [13]: > 30 µM; Inhibition of recombinant HIV-1 RT [13]: none of the benzenesulfonamides were active; IC50 [14]: > 30 µM; Inhibition of recombinant HIV-1 IN [14]: none of the benzenesulfonamides were active; IC50 [14, 16]: > 30 µM"
"O=c1c2ccccc2sn1N(S(=O)(=O)c1ccc([N+](=O)[O-])cc1)S(=O)(=O)c1ccc([N+](=O)[O-])cc1 [Compound 22, 4-Nitro-N-[(4-nitrophenyl)sulfonyl]-N-(3-oxo-1,2-benzisothiazol-2(3H)-yl)benzenesulfonamide]",21,20,20,21,24,25,23,–,–,–,> 4,> 5,> 5,> 4,> 4,> 4,> 4,–,"CC50 at 4 days ([5]; MT-4, MTT method): > 100 µM"
"O=c1c2ccccc2sn1N(S(=O)(=O)c1ccc(F)cc1)S(=O)(=O)c1ccc(F)cc1 [Compound 23, 4-Fluoro-N-[(4-fluorolphenyl)sulfonyl]-N-(3-oxo-1,2-benzisothiazol-2(3H)-yl)benzenesulfonamide]",26 ± 2,23 ± 1,24,25,22,25,22,–,36 ± 2.5,–,–,–,–,–,–,–,–,–,–
"O=c1c2ccccc2sn1N(S(=O)(=O)c1ccc(Cl)cc1)S(=O)(=O)c1ccc(Cl)cc1 [Compound 24, 4-Chloro-N-[(4-chlorophenyl)sulfonyl]-N-(3-oxo-1,2-benzisothiazol-2(3H)-yl)benzenesulfonamide]",71 ± 6,29 ± 1,56,65,71,64,63,–,> 100,–,–,–,–,–,–,–,–,–,–
"CC(C)(C)NC(=O)[C@@H]1C[C@@H]2CCCC[C@@H]2CN1C[C@@H](O)[C@H](Cc1ccccc1)NC(=O)[C@H](CC(N)=O)NC(=O)c1ccc2ccccc2n1 [SAQ, saquinavir, reference compound]",0.01 ± 0.001,0.02 ± 0.001,0.01 ± 0.002,0.01 ± 0.005,0.01 ± 0.005,0.02 ± 0.007,0.5 ± 0.1,–,–,–,–,–,–,–,–,–,–,–,"CC50 ([5]; MT-4, MTT method): ≥ 20 µM"
